# Results taken from article PMC4232510, “Identification of Functionally Important Residues of the Rat P2X4 Receptor by Alanine Scanning Mutagenesis of the Dorsal Fin and Left Flipper Domains” (PLoS ONE, 2014).
# Changes are numbered by the printed parent chain.
# Tests used:
# Test in all cases: whole-cell patch clamp, HEK293T cells expressing mutant
# Format in all cases: cell-based
# Details in all cases: for relative responsiveness: 100 µM agonist 2 s, relative to ATP (100%)
# rP2X4R Y213A mutant = molecular target: T1, rP2X4R Y213A mutant (Rattus norvegicus, UniProt P51577, Y213A)
# T1 construct: expressed in transfected cells; host or cells: HEK293T
# T1 sequence (P51577 1-388 Y213A): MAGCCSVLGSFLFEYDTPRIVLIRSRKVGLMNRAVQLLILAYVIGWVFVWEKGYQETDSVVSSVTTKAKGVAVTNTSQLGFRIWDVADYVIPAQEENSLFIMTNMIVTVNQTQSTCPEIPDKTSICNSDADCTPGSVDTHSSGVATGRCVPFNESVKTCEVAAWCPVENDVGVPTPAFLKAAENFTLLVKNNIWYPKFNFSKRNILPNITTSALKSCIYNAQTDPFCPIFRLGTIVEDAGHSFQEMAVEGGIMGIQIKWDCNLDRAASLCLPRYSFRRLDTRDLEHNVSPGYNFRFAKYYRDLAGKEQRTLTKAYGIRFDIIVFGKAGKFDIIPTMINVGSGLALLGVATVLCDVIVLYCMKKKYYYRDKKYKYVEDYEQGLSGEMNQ
# rP2X4R L284A mutant = molecular target: T2, rP2X4R L284A mutant (Rattus norvegicus, UniProt P51577, L284A)
# T2 construct: expressed in transfected cells; host or cells: HEK293T
# T2 sequence (P51577 1-388 L284A): T1 sequence (P51577 1-388 Y213A) with A213Y, L284A
# rP2X4R S212A mutant = molecular target: T3, rP2X4R S212A mutant (Rattus norvegicus, UniProt P51577, S212A)
# T3 construct: expressed in transfected cells; host or cells: HEK293T
# T3 sequence (P51577 1-388 S212A): T1 sequence (P51577 1-388 Y213A) with S212A, A213Y
# [1] = 100 µM ATP 60 s, biexponential fit
# [2] = contribution of τdes2, 100 µM ATP 60 s
# [3] = decay after removal of 1 or 3 µM ATP, 3 µM IVM
# [4] = naïve receptors, 2–5 s application
# [5] = 3 µM IVM 4-6 min vs IVM-untreated
compound,measurement,setting,value
2′(3′-O-(4-Benzoylbenzoyl)adenosine 5′-triphosphate [BzATP],relative responsiveness,rP2X4R Y213A mutant,27.3±5.5%
same,relative responsiveness,rP2X4R L284A mutant,20.6±0.2 %
same,relative responsiveness,rP2X4R S212A mutant,47.5±5.2%
"CSc1nc(N)c2ncn([C@@H]3O[C@H](COP(=O)(O)OP(=O)(O)OP(=O)(O)O)[C@@H](O)[C@H]3O)c2n1 [2-MeS-ATP, 2-(Methylthio)adenosine 5′-triphosphate]",relative responsiveness,rP2X4R Y213A mutant,63.8±16.4%
same,relative responsiveness,rP2X4R L284A mutant,69.0±3.0%
same,relative responsiveness,rP2X4R S212A mutant,65.1±19.7%
Nc1ncnc2c1ncn2[C@@H]1O[C@H](COP(=O)(O)OP(=O)(O)OP(=O)(O)O)[C@@H](O)[C@H]1O [ATP],τdes1,rP2X4R Y213A mutant; [1],3.0 ± 0.3 s
same,τdes2,rP2X4R Y213A mutant; [1],12.4 ± 1.6 s
same,Imax,rP2X4R Y213A mutant; 100–1000 µM ATP,2.2 ± 0.4 nA
same,Imax+IVM,rP2X4R Y213A mutant; ATP after 3 µM IVM 4-6 min,3.1 ± 0.2 nA
same,A2 /(A1+A2),rP2X4R Y213A mutant; [2],61 ± 6%
same,τoff +IVM,rP2X4R Y213A mutant; [3],18 ± 4.3 s
same,EC50,rP2X4R Y213A mutant; [4],6 ± 0.9 µM
same,τdes,"rP2X4R Y213A mutant; weighted, 100 µM ATP 60 s",8.5 ± 0.8 s
same,τdes1,rP2X4R L284A mutant; [1],0.8 ± 0.1 s
same,τdes2,rP2X4R L284A mutant; [1],7.2 ± 1.0 s
same,Imax,rP2X4R L284A mutant; 100–1000 µM ATP,2.4 ± 0.3 nA
same,Imax+IVM,rP2X4R L284A mutant; ATP after 3 µM IVM 4-6 min,4.1 ± 0.3 nA
same,A2 /(A1+A2),rP2X4R L284A mutant; [2],60 ± 5%
same,τoff +IVM,rP2X4R L284A mutant; [3],28 ± 2.3 s
same,EC50,rP2X4R L284A mutant; [4],3.9 ± 1.9 µM
same,τdes,"rP2X4R L284A mutant; weighted, 100 µM ATP 60 s",4.8 ± 0.9 s
same,τdes1,rP2X4R S212A mutant; [1],1.7 ± 0.4 s
same,τdes2,rP2X4R S212A mutant; [1],11.4 ± 1.5 s
same,Imax,rP2X4R S212A mutant; 100–1000 µM ATP,2.1 ± 0.2 nA
same,Imax+IVM,rP2X4R S212A mutant; ATP after 3 µM IVM 4-6 min,3.4 ± 0.2 nA
same,A2 /(A1+A2),rP2X4R S212A mutant; [2],62 ± 5%
same,τoff +IVM,rP2X4R S212A mutant; [3],20 ± 5.0 s
same,EC50,rP2X4R S212A mutant; [4],4.8 ± 1.2 µM
same,τdes,"rP2X4R S212A mutant; weighted, 100 µM ATP 60 s",7.8 ± 1.1 s
"Nc1ncnc2c1ncn2[C@@H]1O[C@H](CO[P@](=O)(O)O[P@](=O)(O)O[P@@](=O)(O)S)[C@@H](O)[C@H]1O [ATPγS, Adenosine 5′-(γ-thio)triphosphate]",relative responsiveness,rP2X4R Y213A mutant,37.1±5.5%
same,relative responsiveness,rP2X4R L284A mutant,32.4±8.2%
same,relative responsiveness,rP2X4R S212A mutant,61.7±3.9%
"CC[C@H](C)[C@H]1O[C@]2(CC[C@@H]1C)C[C@@H]1C[C@@H](C/C=C(\C)[C@@H](O[C@H]3C[C@H](OC)[C@@H](O[C@H]4C[C@H](OC)[C@@H](O)[C@H](C)O4)[C@H](C)O3)[C@@H](C)/C=C/C=C3\CO[C@@H]4[C@H](O)C(C)=C[C@@H](C(=O)O1)[C@]34O)O2 [IVM, ivermectin]",Fold incr. Imax,rP2X4R Y213A mutant; [5],1.4 ± 0.1 fold
same,Fold incr. Imax,rP2X4R L284A mutant; [5],1.7 ± 0.1 fold
same,Fold incr. Imax,rP2X4R S212A mutant; [5],1.6 ± 0.2 fold
"Nc1ncnc2c1ncn2C1OC(COP(=O)(O)CP(=O)(O)OP(=O)(O)O)C(O)C1O (stereo not drawn) [α,β-meATP, α,β-methyleneadenosine 5′-triphosphate]",relative responsiveness,rP2X4R Y213A mutant,31.3±6.7%
same,relative responsiveness,rP2X4R L284A mutant,22.2±3.9%
same,relative responsiveness,rP2X4R S212A mutant,19.2±6.2%
